Measurements from ChEMBL document CHEMBL5046289, “Targeting the S2 Subsite Enables the Structure-Based Discovery of Novel Highly Selective Factor XIa Inhibitors” (J Med Chem, 2022).
pIC50: −log10 of the molar value.

How the values were obtained:
Plasma kallikrein = Plasma kallikrein (Homo sapiens, UniProt P03952); test: Inhibition of plasma kallikrein (unknown origin) assessed as chromogenic substrate hydrolysis using CS-31(02) as substrate incubated for 1 hr by spectrophotometer based microplate reader method
Chain of Plasma kallikrein (P03952 20-390 limits assumed): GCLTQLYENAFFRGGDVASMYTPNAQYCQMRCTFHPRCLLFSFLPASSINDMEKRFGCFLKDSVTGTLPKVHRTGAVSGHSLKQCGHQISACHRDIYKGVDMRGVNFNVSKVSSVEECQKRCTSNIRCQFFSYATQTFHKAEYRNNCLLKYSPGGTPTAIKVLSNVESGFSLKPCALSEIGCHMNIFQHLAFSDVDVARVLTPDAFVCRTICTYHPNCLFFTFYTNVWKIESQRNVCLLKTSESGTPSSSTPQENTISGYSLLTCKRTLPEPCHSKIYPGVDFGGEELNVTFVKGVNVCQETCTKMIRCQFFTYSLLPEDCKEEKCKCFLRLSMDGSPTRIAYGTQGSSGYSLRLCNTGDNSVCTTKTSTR
Chain of Plasma kallikrein (P03952 391-638 limits assumed): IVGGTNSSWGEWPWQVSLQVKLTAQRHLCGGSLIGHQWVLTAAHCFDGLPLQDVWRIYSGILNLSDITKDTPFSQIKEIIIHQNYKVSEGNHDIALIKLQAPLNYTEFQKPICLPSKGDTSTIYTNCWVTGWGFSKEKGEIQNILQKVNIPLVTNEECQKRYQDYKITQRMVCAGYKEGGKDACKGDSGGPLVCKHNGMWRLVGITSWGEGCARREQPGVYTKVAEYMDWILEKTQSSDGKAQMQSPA

Coagulation factor XI [1] = target: T1, Coagulation factor XI (Homo sapiens, UniProt P03951); test: Inhibition of coagulation factor XIa (unknown origin) assessed as chromogenic substrate hydrolysis using CS-21(66) as substrate incubated for 1 hr by spectrophotometer based microplate reader method
T1 sequence (P03951 19-387 limits assumed): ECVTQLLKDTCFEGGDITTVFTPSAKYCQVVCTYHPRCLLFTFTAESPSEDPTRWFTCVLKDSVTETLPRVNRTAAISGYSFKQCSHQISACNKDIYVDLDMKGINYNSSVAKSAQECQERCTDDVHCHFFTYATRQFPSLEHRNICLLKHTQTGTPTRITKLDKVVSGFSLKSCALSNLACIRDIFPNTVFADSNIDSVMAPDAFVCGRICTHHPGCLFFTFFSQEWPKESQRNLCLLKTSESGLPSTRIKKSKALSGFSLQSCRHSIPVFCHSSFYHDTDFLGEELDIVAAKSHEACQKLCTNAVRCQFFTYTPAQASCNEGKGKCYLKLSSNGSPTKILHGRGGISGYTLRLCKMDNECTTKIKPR
T1 sequence (P03951 388-625 limits assumed): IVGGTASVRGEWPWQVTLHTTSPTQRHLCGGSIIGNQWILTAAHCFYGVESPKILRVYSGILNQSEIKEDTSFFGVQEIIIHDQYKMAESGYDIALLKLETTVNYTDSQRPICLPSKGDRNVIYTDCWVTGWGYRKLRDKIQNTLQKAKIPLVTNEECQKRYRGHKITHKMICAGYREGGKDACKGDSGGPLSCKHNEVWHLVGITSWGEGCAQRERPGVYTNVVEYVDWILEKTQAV

Coagulation factor XI [2] = target: T1, Coagulation factor XI; conditions: dose 50.0 nM, time 1.0 hrs
Homo sapiens = species on record: Homo sapiens; test: Selectivity index, ratio of IC50 for plasma kallikrein (unknown origin) to IC50 for coagulation factor XIa (unknown origin)
[3] = Toxicity in C57BL/6J mouse assessed as bleeding risk at 60 to 100 mg/kg, iv measured after 15 mins by tail transection assay; type: organism-based; conditions: in vivo, 0.25 h, dose 60-100 mg/kg
[4] = Toxicity in C57BL/6J mouse assessed as bleeding risk at 20 mg/kg, iv measured after 15 mins by tail transection assay; type: organism-based; conditions: in vivo, 0.25 h
[5] = Toxicity in C57BL/6J mouse assessed as bleeding risk at 35 mg/kg, iv measured after 15 mins by tail transection assay; type: organism-based; conditions: in vivo, 0.25 h

Row | pIC50 (Plasma kallikrein) | pIC50 (Coagulation factor XI [1]) | inhibition (Coagulation factor XI [2]) | SMILES | also measured
1 | 6.22 | 8.11 | 65.7% | O=C(/C=C/c1cc(Cl)ccc1-n1cnnn1)N[C@@H](CC(=O)N1CCN(CC2CC2)CC1)C(=O)Nc1ccc(C(=O)O)cc1 | Ratio IC50 (Homo sapiens): 77
2 |  | 6.13 | 20.5% | CN1CCN(C(=O)CC[C@H](NC(=O)/C=C/c2cc(Cl)ccc2-n2cnnn2)C(=O)Nc2ccc(C(=O)O)cc2)CC1 | 
3 | 5.51 |  | 41.7% | O=C(/C=C/c1cc(Cl)ccc1-n1cnnn1)N[C@@H](CCC(=O)N1CCN(CC2CC2)CC1)C(=O)Nc1ccc(C(=O)O)cc1 | Ratio IC50 (Homo sapiens): 42
4 |  |  | 3.6% | CCc1ccc(CN(CC(=O)Nc2ccc(C(=O)O)cc2)C(=O)/C=C/c2cc(Cl)ccc2-n2cnnn2)cc1 | 
5 |  |  | < 5% | Cc1ccc(CN(CC(=O)Nc2ccc(C(=O)O)cc2)C(=O)/C=C/c2cc(Cl)ccc2-n2cnnn2)cc1 | 
6 |  | 7.13 | 20.9% | CC(C)N1CCN(C(=O)CC[C@H](NC(=O)/C=C/c2cc(Cl)ccc2-n2cnnn2)C(=O)Nc2ccc(C(=O)O)cc2)CC1 | 
7 |  |  |  | O=C(/C=C/c1cc(Cl)ccc1-n1cnnn1)N[C@@H](Cc1ccccc1)C(=O)Nc1ccc(C(=O)O)cc1 | Activity [3]: Toxic; Activity [4]: Non-Toxic; Activity [5]: Non-Toxic
8 | 5.57 | 7.59 | 45.5% | CCN1CCN(C(=O)C[C@H](NC(=O)/C=C/c2cc(Cl)ccc2-n2cnnn2)C(=O)Nc2ccc(C(=O)O)cc2)CC1 | Ratio IC50 (Homo sapiens): 106
9 |  |  | 2.1% | O=C(O)C[C@H](NC(=O)/C=C/c1cc(Cl)ccc1-n1cnnn1)C(=O)Nc1ccc(C(=O)O)cc1 | 
10 |  |  | < 5% | COc1ccc(CN(CC(=O)Nc2ccc(C(=O)O)cc2)C(=O)/C=C/c2cccc(Cl)c2)cc1 | 
11 | 5.97 | 7.52 | 53.3% | O=C(/C=C/c1cc(Cl)ccc1-n1cnnn1)N[C@@H](CC(=O)N1CCN(Cc2ccccc2)CC1)C(=O)Nc1ccc(C(=O)O)cc1 | Ratio IC50 (Homo sapiens): 35
12 |  |  | 8.9% | COc1ccc(CN(CC(=O)Nc2ccc(C(=O)O)cc2)C(=O)/C=C/c2cc(Cl)ccc2-n2cnnn2)cc1 | 
13 | 4.76 | 7.12 | 23.2% | CC(=O)N1CCN(C(=O)C[C@H](NC(=O)/C=C/c2cc(Cl)ccc2-n2cnnn2)C(=O)Nc2ccc(C(=O)O)cc2)CC1 | Ratio IC50 (Homo sapiens): 226
14 |  |  | 12.3% | O=C(/C=C/c1cc(Cl)ccc1-n1cnnn1)N[C@@H](CC(=O)N1CCC(O)CC1)C(=O)Nc1ccc(C(=O)O)cc1 | 
15 |  |  | 20.9% | O=C(/C=C/c1cc(Cl)ccc1-n1cnnn1)N[C@@H](CCC(=O)N1CCC(O)CC1)C(=O)Nc1ccc(C(=O)O)cc1 | 
16 |  |  | 6.6% | O=C(O)CC[C@H](NC(=O)/C=C/c1cc(Cl)ccc1-n1cnnn1)C(=O)Nc1ccc(C(=O)O)cc1 | 
17 |  |  | 2.6% | O=C(/C=C/c1cc(Cl)ccc1-n1cnnn1)N[C@@H](CCC(=O)N1CCS(=O)(=O)CC1)C(=O)Nc1ccc(C(=O)O)cc1 | 
18 | 5.17 | 6.88 | 21.9% | O=C(/C=C/c1cc(Cl)ccc1-n1cnnn1)N[C@@H](CCC(=O)N1CCSCC1)C(=O)Nc1ccc(C(=O)O)cc1 | Ratio IC50 (Homo sapiens): 50
19 |  |  | 3.6% | CC1CCN(C(=O)C[C@H](NC(=O)/C=C/c2cc(Cl)ccc2-n2cnnn2)C(=O)Nc2ccc(C(=O)O)cc2)CC1 | 

Row | pIC50 (Plasma kallikrein) | pIC50 (Coagulation factor XI [1]) | inhibition (Coagulation factor XI [2]) | SMILES | also measured
20 |  |  | 15.9% | O=C(/C=C/c1cc(Cl)ccc1-n1cnnn1)N[C@@H](CC(=O)N1CCCCC1)C(=O)Nc1ccc(C(=O)O)cc1 | 
21 |  |  | 17.2% | CN1CCN(C(=O)C[C@H](NC(=O)/C=C/c2cc(Cl)ccc2-n2cnnn2)C(=O)Nc2ccc(C(=O)O)cc2)CC1 | 
22 | 5.85 | 7.17 | 34.7% | O=C(/C=C/c1cc(Cl)ccc1-n1cnnn1)N[C@@H](CC(=O)N1CCCN(CC2CC2)CC1)C(=O)Nc1ccc(C(=O)O)cc1 | Ratio IC50 (Homo sapiens): 21
23 |  |  | 19.4% | Cc1ccc(CN2CCN(C(=O)CC[C@H](NC(=O)/C=C/c3cc(Cl)ccc3-n3cnnn3)C(=O)Nc3ccc(C(=O)O)cc3)CC2)cc1 | 
24 |  |  | < 5% | O=C(/C=C/c1cc(Cl)ccc1-n1cnnn1)NCC(=O)Nc1ccc(C(=O)O)cc1 | 
25 |  | 7.05 | 17.2% | CCN1CCN(C(=O)CC[C@H](NC(=O)/C=C/c2cc(Cl)ccc2-n2cnnn2)C(=O)Nc2ccc(C(=O)O)cc2)CC1 | 
26 | 5.47 | 7.94 | 60.2% | O=C(/C=C/c1cc(Cl)ccc1-n1cnnn1)N[C@@H](CC(=O)N1CCN(CCO)CC1)C(=O)Nc1ccc(C(=O)O)cc1 | Ratio IC50 (Homo sapiens): 295
27 |  |  | 30.1% | CN1CCCN(C(=O)CC[C@H](NC(=O)/C=C/c2cc(Cl)ccc2-n2cnnn2)C(=O)Nc2ccc(C(=O)O)cc2)CC1 | 
28 | 5.57 |  | 39.3% | CCCCN1CCN(C(=O)CC[C@H](NC(=O)/C=C/c2cc(Cl)ccc2-n2cnnn2)C(=O)Nc2ccc(C(=O)O)cc2)CC1 | Ratio IC50 (Homo sapiens): 30
29 |  |  | 3.8% | O=C(/C=C/c1cc(Cl)ccc1-n1cnnn1)N[C@@H](CCC(=O)N1CCN(Cc2cccc(Cl)c2)CC1)C(=O)Nc1ccc(C(=O)O)cc1 | 
30 |  |  | 3.1% | CC1CCN(C(=O)CC[C@H](NC(=O)/C=C/c2cc(Cl)ccc2-n2cnnn2)C(=O)Nc2ccc(C(=O)O)cc2)CC1 | 
31 | 5.92 | 7.58 | 43.5% | Cc1ccc(CN2CCN(C(=O)C[C@H](NC(=O)/C=C/c3cc(Cl)ccc3-n3cnnn3)C(=O)Nc3ccc(C(=O)O)cc3)CC2)cc1 | Ratio IC50 (Homo sapiens): 45
32 |  |  | 7.9% | O=C(CN(Cc1ccccc1)C(=O)/C=C/c1cccc(Cl)c1)Nc1ccc(C(=O)O)cc1 | 
33 | 6.31 | 7.51 | 44% | CC(C)N1CCN(C(=O)C[C@H](NC(=O)/C=C/c2cc(Cl)ccc2-n2cnnn2)C(=O)Nc2ccc(C(=O)O)cc2)CC1 | Ratio IC50 (Homo sapiens): 16
34 |  |  | 7.5% | CN(C)C1CCN(C(=O)CC[C@H](NC(=O)/C=C/c2cc(Cl)ccc2-n2cnnn2)C(=O)Nc2ccc(C(=O)O)cc2)CC1 | 
35 |  |  | 16.1% | O=C(/C=C/c1cc(Cl)ccc1-n1cnnn1)N[C@@H](CCC(=O)N1CCCCC1)C(=O)Nc1ccc(C(=O)O)cc1 | 
36 |  |  | 15.3% | O=C(CN(Cc1ccccc1)C(=O)/C=C/c1cc(Cl)ccc1-n1cnnn1)Nc1ccc(C(=O)O)cc1 | 
37 |  |  | 7.2% | O=C(CN(Cc1ccc(F)cc1)C(=O)/C=C/c1cc(Cl)ccc1-n1cnnn1)Nc1ccc(C(=O)O)cc1 | 
38 | 6.29 | 8.11 | 51.5% | CCCCN1CCN(C(=O)C[C@H](NC(=O)/C=C/c2cc(Cl)ccc2-n2cnnn2)C(=O)Nc2ccc(C(=O)O)cc2)CC1 | 
